According to article PMC3951225, “Cytotoxic Sesquiterpene Lactones from Kauna lasiophthalma Griseb” (Scientia Pharmaceutica, 2014):
Entries after “also recorded” stand apart in the source; their conditions may differ.

Tests used:
Format in all cases: cell-based, human
SK-BR-3 cells = experiment: MTT cytotoxicity dose-response assay, SK-BR-3; settings: 72 h treatment, a/b/c = one, two, three or more dose-response curves
Experimental: (§1) The L56Br-C1 cell line was established at the Department of Oncology, Clinical Sciences, Lund University, Sweden. The JIMT-1 cell line was purchased from the German Collection of Microorganisms and Cell Cultures (Braunschweig, Germany) and the MCF-7, SK-BR-3, HCC1937, and MCF-10A cells were obtained from the American Tissue Type Culture Collection (Manassas, VA, USA). The cell lines were cultured as monolayers at 37°C in a humidified incubator with 5% CO2 in air. The MCF-10A cells have a population doubling time of 15 hours, the JIMT-1 cells 24 hours, and the other four cell lines around 35 hours.
(§2) The L56Br-C1, MCF-7, SK-BR-3, and HCC1937 cells were cultured as described by Holst et al. JIMT-1 cells were cultured in DMEM/Ham’s F12 medium supplemented with 10% fetal calf serum, non-essential amino acids (1 mM), insulin (10 μg/ml), penicillin (100 U/ml), and streptomycin (100 μg/ml). MCF-10A cells were maintained in RPMI 1640 medium supplemented with 10% heat-inactivated fetal calf serum, non-essential amino acids (1 mM), insulin (10 μg/ml), epidermal growth factor (20 ng/ml), cholera toxin (50 ng/ml), hydrocortisone (250 ng/ml), penicillin (100 U/ml), and streptomycin (100 μg/ml). The MCF-10A and JIMT-1 cell lines were sub-cultured twice a week, while the L56Br-C1, MCF-7, SK-BR-3, and HCC1937 cells were sub-cultured once a week with an additional change of growth medium once a week.
(§3) Stock solutions ([…]) of the compounds were made in 100% DMSO. These were further diluted in PBS to obtain the correct concentrations used for the MTT assay. Appropriate DMSO controls were used. In general, the highest DMSO concentration was 0.1%, however, when treating with 100 μM and starting from a […] in 100% DMSO, a final concentration of 1% DMSO was used as the control.
(§4) The MTT assay was performed as previously described. Briefly, the cells were trypsinized and counted in a hemocytometer. Aliquots of 180 μl cell suspensions containing 3000 (MCF-10A) and 6000 (MCF-7, SK-BR-3, JIMT-1, L56Br-C1, and HCC1937) cells were seeded in the wells of 96-well plates. Compounds were added 24 hours after seeding to allow the attachment of cells. A concentration range between 0.1 to 100 μM was used in the MTT assays and appropriate DMSO controls. At 72 h of drug treatment, 20 μl of MTT solution (5 mg/ml MTT in PBS) was added to each well and the 96-well plates were returned to the CO2 incubator for 1 hour. The MTT-containing medium was removed. The blue formazan product formed by the reduction in live attached cells was dissolved by adding 100 μl of 100% DMSO per well after removal of the MTT-containing medium. The plates were swirled gently at room temperature for 10 minutes to dissolve the precipitate. Absorbance was monitored at 540 nm in a Labsystems iEMS Reader MF (Labsystems Oy, Helsinki, Finland) using the DeltaSoft II v.4.14 software (Biometallics Inc., Princeton, NJ, USA). Dose-response curves were drawn based on the % of the control in Excel. The IC50 was deduced from the curves.

[1] = test system: breast cancer cell lines HCC1937, JIMT-1, L56Br-C1, MCF-7, and SK-BR-3; experiment: MTT assay, panel of five breast cancer cell lines; settings: for Anticancer activity / relative potency in words: breast cell lines, comparison among the tested compounds
Experimental: The anticancer activities of sesquiterpenes 1, 3, 6–9, 11, 12, 14, and 16 were assessed in five breast-cancer cell lines, HCC1937, JIMT-1, L56Br-C1, MCF-7, and SK-BR-3, and compared with the cytotoxicity in the breast-derived non-cancerous cell line MCF-10A using the MTT colorimetric assay. […] 16 is an unsaturated ester and differs in that respect from the other compounds, but the lower activity of 3 compared to the similar compounds was unexpected. Costunolide (1) differs from the eudesmane sesquiterpenes by having the unsaturated lactone fused with a macrocyclic system instead of a cyclohexane ring, and the tension of the lactone ring is likely to be lower in 1. […] The difference in the activities of 7 and 8 may depend on the higher lipophilicity of 8, facilitating its absorption into the cells. In 11 and 14, the presence of a second Michael acceptor function may influence the activity. […] MCF-7 has a normal wild type p53 gene, which the MCF-10A cells also have, while the others have a mutated p53.
as §3, §4

L56Br-C1 cells = experiment: MTT cytotoxicity dose-response assay, L56Br-C1; settings: 72 h treatment, a/b/c = one, two, three or more dose-response curves
Experimental: as §1, §2, §3, §4

JIMT-1 cells = experiment: MTT cytotoxicity dose-response assay, JIMT-1; settings: 72 h treatment, a/b/c = one, two, three or more dose-response curves
Experimental: as §1, §2, §3, §4

HCC1937 cells = experiment: MTT cytotoxicity dose-response assay, HCC1937; settings: 72 h treatment, a/b/c = one, two, three or more dose-response curves
Experimental: as §1, §2, §3, §4

MCF-7 cells = experiment: MTT cytotoxicity dose-response assay, MCF-7; settings: 72 h treatment, a/b/c = one, two, three or more dose-response curves
Experimental: as §1, §2, §3, §4

[2] = MTT cytotoxicity dose-response assay, MCF-10A (non-cancerous); settings: human, MCF-10A cells (normal-like breast epithelial cell line), 72 h treatment, a/b/c = one, two, three or more dose-response curves
Experimental: as §1, §2, §3, §4

MCF-10A cells = experiment: as above; settings: normal-like breast epithelial cell line, 72 h treatment, a/b/c = one, two, three or more dose-response curves
Experimental: as §1, §2, §3, §4

SMILES	IC50 (SK-BR-3 cells; Homo sapiens, SK-BR-3, 72 h) [µM]	Anticancer activity / relative potency in words [1]	IC50 (L56Br-C1 cells; Homo sapiens, 72 h) [µM]	IC50 (JIMT-1 cells; Homo sapiens, JIMT-1, 72 h) [µM]	IC50 (HCC1937 cells; Homo sapiens, HCC1937, 72 h) [µM]	IC50 (MCF-7 cells; Homo sapiens, MCF7, 72 h) [µM]	IC50 at 72 h [2] [µM]	IC50 (L56Br-C1 cells) [µM]	IC50 (JIMT-1 cells) [µM]	IC50 ([1]; Homo sapiens, five breast cancer cell lines, read-out: IC50 values, range over the cancer cell lines) [µM]	IC50 (HCC1937 cells) [µM]	IC50 (SK-BR-3 cells) [µM]	IC50 (MCF-7 cells) [µM]	IC50 (MCF-10A cells) [µM]
C=C1C(=O)O[C@@H]2[C@@H]3[C@@](C)(CC[C@@H]12)[C@@H](OC(C)=O)CC[C@]3(C)O (relative stereo) [Compound 3, (+)-(3aS*,5aR*,6S*,9S*,9aS*,9bS*)-9-Hydroxy-5a,9-dimethyl-3-methylidene-2-oxododeca-hydronaphtho[1,2-b]furan-6-yl acetate]	10.1	lowest activity	9.3	18	23	27	38	–	–	–	–	–	–	–
C=C1CC[C@H](OC(C)=O)[C@]2(C)CC[C@H]3C(=C)C(=O)O[C@@H]3[C@@H]12 (relative stereo) [Compound 8, (3aS*,5aR*,6S*,9aS*,9bS*)-5a-Methyl-3,9-dimethylidene-2-oxododecahydro-naphtho[1,2-b]furan-6-yl acetate]	4.7 ± 1.1	–	8.4	6.3	–	11 ± 1.7	24	12	7	–	–	–	–	–
C=C1C(=O)O[C@@H]2/C=C(\C)CC/C=C(\C)CC[C@@H]12 [Compound 1, costunolide]	2 ± 1	most active in all of the cell lines	3.7	6.2	2.2	5.3 ± 1.4	20	4.8	6.3	2 to 6.2	4.2	–	–	–
C=C1CC[C@@H](O)[C@]2(C)CC[C@H]3C(=C)C(=O)O[C@@H]3[C@@H]12 [Compound 6, reynosin]	5.2 ± 1.6	–	11	8.5	10	16.4 ± 7.1	17	–	12	–	–	–	–	–
C=C1C(=O)OC2C1CCC1(C)C(O)CCC(=C)C21 (stereo not drawn) [Compound 7, 1-epi-reynosin]	7.6	–	9	12	12	23	22	10.1	14	–	18.5	6.4	30	–
C=C1C(=O)O[C@@H]2[C@H]3C(C)=CC[C@@H](O)[C@]3(C)CC[C@@H]12 [Compound 9, santamarin]	3.1 ± 0.6	–	12.3 ± 5.5	6.9	8.1 ± 1.8	9.7 ± 0.9	17	–	7.2	–	–	–	–	–
C=C1C(=O)OC2C1CCC1(C)C(=O)C=CC(C)(O)C21 (stereo not drawn) [Compound 11, 11,13-didehydrovulgarin]	4.2 ± 2.1	–	3.6	10	4.8	10.1	24	–	13	–	7.8	–	18	21
C=C1C(=O)O[C@H]2[C@H]1CCC(C)=C1[C@@H](OC(C)=O)[C@H]3O[C@@]3(C)[C@@H]12 [Compound 12, 2β-acetoxy-3α,4α-epoxy-3,4-dihydrokauniolide]	4.2 ± 1.1	–	6	7.1	6	7.1	–	10.1	10.1	–	7.8	–	8.3	–
C=C1C(=O)O[C@@H]2[C@H]3C(C)=CC(=O)C3=C(C)CC[C@@H]12 [Compound 14, dehydroleucodin]	2.5 ± 0.4	–	5.8	7.5	3	3.3	20	10	8.1	–	5.2	–	4.3	23
C=C(C(=O)OC)C1CCC2(C)C(O)CCC(=C)C2C1O (stereo not drawn) [Compound 16, baynol C]	9.9 ± 3	lowest activity	16	13	24	27.4 ± 17.2	29	–	23	–	–	–	–	–
COC(=O)C(N)CSCC1C(=O)OC2C1CCC1(C)C(O)CC=C(C)C21 (stereo not drawn) [Compound 21]	51	significantly less potent; also recorded: inactive or considerably less potent	73	> 100	100	> 100	41	–	–	–	–	40	–	–
